# Reference: ChEMBL document CHEMBL4184110 (Bioorg Med Chem Lett, 2018)
# Biological target: T1, Luciferin 4-monooxygenase (Photuris pensylvanica, UniProt Q27757)
# T1 sequence (Q27757 whole entry): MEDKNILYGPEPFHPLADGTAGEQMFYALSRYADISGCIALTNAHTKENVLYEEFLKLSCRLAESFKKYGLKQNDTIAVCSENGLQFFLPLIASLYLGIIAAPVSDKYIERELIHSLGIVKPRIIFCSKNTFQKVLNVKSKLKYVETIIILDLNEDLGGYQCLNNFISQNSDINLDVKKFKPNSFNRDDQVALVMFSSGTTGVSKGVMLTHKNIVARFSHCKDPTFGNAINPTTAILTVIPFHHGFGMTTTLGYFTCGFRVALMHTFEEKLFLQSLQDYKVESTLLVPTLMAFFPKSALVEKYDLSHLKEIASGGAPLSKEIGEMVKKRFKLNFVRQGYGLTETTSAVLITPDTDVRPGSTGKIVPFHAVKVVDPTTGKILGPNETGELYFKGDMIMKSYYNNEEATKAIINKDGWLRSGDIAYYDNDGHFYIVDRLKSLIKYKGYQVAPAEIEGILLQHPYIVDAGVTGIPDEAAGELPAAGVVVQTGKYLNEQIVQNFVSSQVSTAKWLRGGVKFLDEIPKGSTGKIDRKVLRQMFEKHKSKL
# Assay: Inhibition of Photuris pennsylvanica luciferase after 45 mins by CellTiter-Glo based luminescence assay
# Conditions: 0.75 h; call rule not given here
row,Structure (SMILES),inhibition (INH)
1,COC(=O)Cc1ccc(OCc2oc(-c3cccc(OC)c3)nc2C)cc1,Not Active
2,COC(=O)c1ccc(OCc2oc(-c3cccc(OC)c3)nc2C)cc1,Not Active
